# Reference: patent US20220348592A1, “FUSED HETEROCYCLIC DERIVATIVES” (Janssen Sciences Ireland Unlimited Company, priority 2019, published 2022)
# How the values were obtained:
# HBV = assay: Anti-HBV activity: intracellular HBV DNA by real-time PCR in HepG2.117 cell line; assay type: cell-based, Hepatitis B virus; settings: Hepatitis B virus, 72 h; HepG2.117 cells, 3 days of treatment, intracellular HBV DNA by real-time PCR, mean value; read-out: HBV-AVE-HepG2.117 EC50 (μM, mean value)
# Procedure, shortened: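 HepG2.117 cells, a Tet-off inducible HBV-producing line, induced to replicate HBV and then treated with serially diluted compound. After 3 days, intracellular HBV DNA quantified by real-time PCR with HBV-specific primers and probe.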
# [1] = Cytotoxicity in HepG2.117 cells, ATPlite Luminescence Assay; assay type: cell-based, human; settings: human, incubated for 3 days, mean value, read-out: TOX-HepG2.117 CC50 (μM, mean value)
# Protocol: Cytotoxicity of the compounds was tested using HepG2 or HepG2.117 cells, incubated for 3 days in the presence of compounds. The viability of the cells was assessed using the PERKIN ELMER ATPlite Luminescence Assay System.”
Compound,EC50 (HBV) [µM],CC50 at 3 days [1] [µM]
C[C@@H]1Cc2nn3c(c2CN1C(=O)c1ccc(Cl)c(Cl)c1)C(=O)N(Cc1ccn(CC(F)(F)F)n1)CC3 [Example C135],0.1,> 50
Cc1nnc(CN2CCn3nc4c(c3C2=O)CN(C(=O)c2ccc(Cl)c(Cl)c2)[C@H](C)C4)n1C [Example C136],> 2.5,> 50
CC(C)n1ccc(CN2CCn3nc4c(c3C2=O)CN(C(=O)c2ccc(Cl)c(Cl)c2)[C@H](C)C4)n1 [Example C137],0.056,> 50
Cc1cnc(CN2CCn3nc4c(c3C2=O)CN(C(=O)c2ccc(Cl)c(Cl)c2)[C@H](C)C4)o1 [Example C138],0.061,> 50
Cc1cncc(CN2CCn3nc4c(c3C2=O)CN(C(=O)c2ccc(Cl)c(Cl)c2)[C@H](C)C4)c1 [Example C139],0.04,> 50
Cc1cc(CN2CCn3nc4c(c3C2=O)CN(C(=O)c2ccc(Cl)c(Cl)c2)[C@H](C)C4)no1 [Example C141],0.056,> 50
Cc1noc(C)c1CN1CCn2nc3c(c2C1=O)CN(C(=O)c1ccc(Cl)c(Cl)c1)[C@H](C)C3 [Example C142],0.268,> 50
C[C@@H]1Cc2nn3c(c2CN1C(=O)c1ccc(Cl)c(Cl)c1)C(=O)N(Cc1noc(C2CC2)n1)CC3 [Example C143],0.16,> 50
C[C@@H]1Cc2nn3c(c2CN1C(=O)c1ccc(Cl)c(Cl)c1)C(=O)N(Cc1ncnn1C)CC3 [Example C144],> 2.5,> 50
Cc1cc(CN2CCn3nc4c(c3C2=O)CN(C(=O)c2ccc(Cl)c(Cl)c2)[C@H](C)C4)on1 [Example C145],0.106,> 50
Cc1nonc1CN1CCn2nc3c(c2C1=O)CN(C(=O)c1ccc(Cl)c(Cl)c1)[C@H](C)C3 [Example C146],1.79,> 50
C[C@@H]1Cc2nn3c(c2CN1C(=O)c1ccc(Cl)c(Cl)c1)C(=O)N(Cc1cnn(C)c1)CC3 [Example C147],0.054,> 50
Cc1noc(CN2CCn3nc4c(c3C2=O)CN(C(=O)c2ccc(Cl)c(Cl)c2)[C@H](C)C4)n1 [Example C148],0.385,> 50
Cc1nc(C)c(CN2CCn3nc4c(c3C2=O)CN(C(=O)c2ccc(Cl)c(Cl)c2)[C@H](C)C4)o1 [Example C149],0.059,> 50
Cc1ncsc1CN1CCn2nc3c(c2C1=O)CN(C(=O)c1ccc(Cl)c(Cl)c1)[C@H](C)C3 [Example C150],0.075,> 50
Cc1nc(CN2CCn3nc4c(c3C2=O)CN(C(=O)c2ccc(Cl)c(Cl)c2)[C@H](C)C4)no1 [Example C151],0.42,> 50
Cc1cccnc1CN1CCn2nc3c(c2C1=O)CN(C(=O)c1ccc(Cl)c(Cl)c1)[C@H](C)C3 [Example C152],0.145,> 50
C[C@@H]1Cc2nn3c(c2CN1C(=O)c1ccc(Cl)c(Cl)c1)C(=O)N(Cc1cncc(F)c1)CC3 [Example C153],0.082,> 50
Cc1cc(F)ccc1CN1CCn2nc3c(c2C1=O)CN(C(=O)c1ccc(Cl)c(Cl)c1)[C@H](C)C3 [Example C154],0.071,9.53
C[C@@H]1Cc2nn3c(c2CN1C(=O)c1ccc(Cl)c(Cl)c1)C(=O)N(Cc1cn(C)nc1C(F)F)CC3 [Example C155],0.083,> 50
Cc1nc(CN2CCn3nc4c(c3C2=O)CN(C(=O)c2ccc(Cl)c(Cl)c2)[C@H](C)C4)co1 [Example C156],0.174,> 50
Cc1cc(CN2CCn3nc4c(c3C2=O)CN(C(=O)c2ccc(Cl)c(Cl)c2)[C@H](C)C4)nn1C [Example C157],0.02,> 50
Cc1nnc(CN2CCn3nc4c(c3C2=O)CN(C(=O)c2ccc(Cl)c(Cl)c2)[C@H](C)C4)n1C1CC1 [Example C158],2.38,> 50
C[C@@H]1Cc2nn3c(c2CN1C(=O)c1ccc(Cl)c(Cl)c1)C(=O)N(Cc1ncccc1C(F)(F)F)CC3 [Example C159],0.979,36
Cc1ncc(CN2CCn3nc4c(c3C2=O)CN(C(=O)c2ccc(Cl)c(Cl)c2)[C@H](C)C4)s1 [Example C160],0.029,> 50
C[C@@H]1Cc2nn3c(c2CN1C(=O)c1ccc(Cl)c(Cl)c1)C(=O)N(Cc1cc(Cl)cc(C#N)c1)CC3 [Example C161],0.051,> 50
Cc1nc(CN2CCn3nc4c(c3C2=O)CN(C(=O)c2ccc(Cl)c(Cl)c2)[C@H](C)C4)cs1 [Example C162],0.082,> 50

Compound,EC50 (HBV) [µM],CC50 at 3 days [1] [µM]
COc1ccc(CN2CCn3nc4c(c3C2=O)CN(C(=O)c2ccc(Cl)c(Cl)c2)[C@H](C)C4)cc1C#N [Example C163],0.098,> 50
CC(C)Oc1ccc(CN2CCn3nc4c(c3C2=O)CN(C(=O)c2ccc(Cl)c(Cl)c2)[C@H](C)C4)cc1 [Example C164],0.039,4.29
C[C@@H]1Cc2nn3c(c2CN1C(=O)c1ccc(Cl)c(Cl)c1)C(=O)N(Cc1nnn(C)c1C(F)(F)F)CC3 [Example C165],0.676,> 50
COc1cccc(F)c1CN1CCn2nc3c(c2C1=O)CN(C(=O)c1ccc(Cl)c(Cl)c1)[C@H](C)C3 [Example C166],0.034,29.1
C[C@@H]1Cc2nn3c(c2CN1C(=O)c1ccc(Cl)c(Cl)c1)C(=O)N(Cc1ccncc1C(F)F)CC3 [Example C167],0.277,> 50
COc1ccc(CN2CCn3nc4c(c3C2=O)CN(C(=O)c2ccc(Cl)c(Cl)c2)[C@H](C)C4)c(F)c1 [Example C168],0.046,6.11
C[C@@H]1Cc2nn3c(c2CN1C(=O)c1ccc(Cl)c(Cl)c1)C(=O)N(Cc1ncoc1C(F)(F)F)CC3 [Example C169],0.831,> 50
C[C@@H]1Cc2nn3c(c2CN1C(=O)c1ccc(Cl)c(Cl)c1)C(=O)N(Cc1ccc(C#N)cc1C(F)(F)F)CC3 [Example C170],0.432,> 50
C[C@@H]1Cc2nn3c(c2CN1C(=O)c1ccc(Cl)c(Cl)c1)C(=O)N(Cc1ccc(C(F)(F)F)nc1)CC3 [Example C171],0.082,15.3
C[C@@H]1Cc2nn3c(c2CN1C(=O)c1ccc(Cl)c(Cl)c1)C(=O)N(Cc1coc(C(F)(F)F)n1)CC3 [Example C172],0.19,> 50
Cc1cn(C)c(CN2CCn3nc4c(c3C2=O)CN(C(=O)c2ccc(Cl)c(Cl)c2)[C@H](C)C4)n1 [Example C173],0.41,> 50
C[C@@H]1Cc2nn3c(c2CN1C(=O)c1ccc(Cl)c(Cl)c1)C(=O)N(Cc1ccccc1OC(F)(F)F)CC3 [Example C174],0.18,15.3
C[C@@H]1Cc2nn3c(c2CN1C(=O)c1ccc(Cl)c(Cl)c1)C(=O)N(Cc1ccc(C#N)cc1F)CC3 [Example C175],0.038,35.5
C[C@@H]1Cc2nn3c(c2CN1C(=O)c1ccc(Cl)c(Cl)c1)C(=O)N(Cc1cn2ccc(C(F)(F)F)cc2n1)CC3 [Example C176],0.274,15
Cc1cc(F)ncc1CN1CCn2nc3c(c2C1=O)CN(C(=O)c1ccc(Cl)c(Cl)c1)[C@H](C)C3 [Example C177],0.136,> 50
C[C@@H]1Cc2nn3c(c2CN1C(=O)c1ccc(Cl)c(Cl)c1)C(=O)N(Cc1cc(C#N)c(F)cc1F)CC3 [Example C178],0.207,> 50
CC(C)c1nnc(CN2CCn3nc4c(c3C2=O)CN(C(=O)c2ccc(Cl)c(Cl)c2)[C@H](C)C4)o1 [Example C179],0.219,> 50
C[C@@H]1Cc2nn3c(c2CN1C(=O)c1ccc(Cl)c(Cl)c1)C(=O)N(Cc1cc(C#N)ccc1F)CC3 [Example C180],0.123,> 50
C[C@@H]1Cc2nn3c(c2CN1C(=O)c1ccc(Cl)c(Cl)c1)C(=O)N(Cc1cc(F)ccc1C(F)(F)F)CC3 [Example C181],0.152,> 50
C[C@@H]1Cc2nn3c(c2CN1C(=O)c1ccc(Cl)c(Cl)c1)C(=O)N(Cc1cc(C(F)F)on1)CC3 [Example C182],0.075,> 50
CC(C)c1noc(C(C)N2CCn3nc4c(c3C2=O)CN(C(=O)c2ccc(Cl)c(Cl)c2)[C@H](C)C4)n1 (stereo partly drawn) [Example C183],0.108,> 50
CC(c1nnnn1C1CC1)N1CCn2nc3c(c2C1=O)CN(C(=O)c1ccc(Cl)c(Cl)c1)[C@H](C)C3 (stereo partly drawn) [Example C184],> 2.5,> 50
CC(c1cccnc1)N1CCn2nc3c(c2C1=O)CN(C(=O)c1ccc(Cl)c(Cl)c1)[C@H](C)C3 (stereo partly drawn) [Example C185],0.114,> 50
CC(c1ccc(F)c(F)c1)N1CCn2nc3c(c2C1=O)CN(C(=O)c1ccc(Cl)c(Cl)c1)[C@H](C)C3 (stereo partly drawn) [Example C186],0.049,21.6
CC(C)Cc1nnc(C(C)N2CCn3nc4c(c3C2=O)CN(C(=O)c2ccc(Cl)c(Cl)c2)[C@H](C)C4)o1 (stereo partly drawn) [Example C187],0.155,> 50
CC(c1cccc(F)c1)N1CCn2nc3c(c2C1=O)CN(C(=O)c1ccc(Cl)c(Cl)c1)[C@H](C)C3 (stereo partly drawn) [Example C188],0.04,49.6
CC(c1cc(F)ccc1F)N1CCn2nc3c(c2C1=O)CN(C(=O)c1ccc(Cl)c(Cl)c1)[C@H](C)C3 (stereo partly drawn) [Example C189],0.043,41.8
